No end group written: not given here.
Test system: canine femoral artery
Assay: Influence of the peptides on the blood flow passing through canine femoral artery (VIP bioassay method of Said and Mutt)
Type: in vivo
Settings: anesthetized beagles; 200 p mol/kg injected into the femoral artery; 0.5 to 4 minutes after injection; conclusion from Table 1 and Table 2
Protocol: The above-mentioned influence was estimated according to the VIP bioassay method proposed by Said and Mutt [see "Nature" 225, 863-864 (1970)]. After three mature beagles having the body weight of 10 kg were fasted for 18 hours, they were anesthetized with thiamylal (10 mg/kg) and Nembutal ([…]). During the experiment, physiological saline was continuously injected (2 mℓ/min.) into a vein of each beagle and the body temperature of the beagle was maintained at 37-38°C by an electric heater. The femoral artery was surgically exposed, and a polyethylene tube filled with heparin-added physiological saline was inserted in and fixed to a muscle branch of the femoral artery so that the polyethylene tube could be used as an injection route for each peptide under test. A probe of an electro-magnetic blood flowmeter was attached to the femoral artery on a peripheral side of the muscle branch so that the average flow rate of blood through the artery was recorded as time-dependent variations on a polygraphy.
A solution of 10 µg of each tested polypeptide dissolved in 25 µℓ of 0.01 N HCl was diluted with physiological saline to prepare an injectable solution of the peptide. The injectable solution was injected into the artery by means of a peristaltic pump. Each peptide was injected at the dose of 200 p mol/kg. Tested peptides included the following compounds: Compound 1: Hd(1-33)-NH2 [the invention peptide of formula (Ic)] Compound 2: Hd(1-31)-NH₂ [the invention peptide of formula (Ia)] Compound 3: VIP(1-28)-Hd(29-35)-NH₂ [the invention peptide of formula (III)] Compound 4: VIP(1-11)-Hd(12-31)-NH₂ [the invention peptide of formula (II)]
Upon elapsed times of 0.5 minute, 1 minute, 2 minutes, 3 minutes and 4 minutes after the injection of each peptide under test,the blood flow rate was measured. Increases in the femoral arterial blood flow rate (mℓ/min.) as comapred with the basal level of blood flow rate were calculated. It may be added that the test results of Table 1 and those of Table 2 were obtained through tests which were conducted by the same method but at different times.

Substance | activity of increasing the blood flow rate (femoral arterial blood flow rate) compared with helodermin | sustaining of the blood-flow-rate-increasing activity compared with helodermin
HSDAIFTQQYSKLLAKLALQKYLASILGSRT-NH2 [Compound 2, Hd(1-31)-NH₂] | enhanced activity of increasing the blood flow rate over helodermin | effects of sustaining the blood-flow-rate-increasing activity in comparison with helodermin
HSDAIFTQQYSKLLAKLALQKYLASILGSRTSP-NH2 [Compound 1, Hd(1-33)-NH₂] | enhanced activity of increasing the blood flow rate over helodermin | effects of sustaining the blood-flow-rate-increasing activity in comparison with helodermin

From patent EP0450100A1, “PHYSIOLOGICALLY ACTIVE PEPTIDE” (MEIJI SEIKA KAISHA LTD., priority 1989, dated 1991)
